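Exposure lasted 48 hours, with cells grown in 96-well plates and compounds tested at five concentrations. At the GI50, growth is halved.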 The source made the active and inactive calls. No stated cut-off is given here; in the data, active = GI50 up to about 1.1 µM and inactive = higher.
Columns and labels:
Assay in all cases: growth of human tumour cells (NCI), 48 h
786-0 = test system: 786-0
A498 = test system: A498
A549 = test system: A549
ACHN = test system: ACHN
CAKI-1 = test system: CAKI-1
CCRF-CEM = test system: CCRF-CEM
COLO 205 = test system: COLO 205
DLD-1 = test system: DLD-1
DMS-114 = test system: DMS-114
DMS-273 = test system: DMS-273
EKVX = test system: EKVX
HCC 2998 = test system: HCC 2998
HCT-116 = test system: HCT-116
HCT-15 = test system: HCT-15
HL-60 = test system: HL-60
HOP-62 = test system: HOP-62
HOP-92 = test system: HOP-92
HT-29 = test system: HT-29
IGROV-1 = test system: IGROV-1
K562 = test system: K562
KM-20L2 = test system: KM-20L2
KM12 = test system: KM12
LXFL 529 = test system: LXFL 529
M19-MEL = test system: M19-MEL
MOLT-4 = test system: MOLT-4
NCI-H23 = test system: NCI-H23
NCI-H460 = test system: NCI-H460
OVCAR-3 = test system: OVCAR-3
OVCAR-4 = test system: OVCAR-4
OVCAR-8 = test system: OVCAR-8
RPMI-8226 = test system: RPMI-8226
RXF 393 = test system: RXF 393
RXF 631 = test system: RXF 631
SF-295 = test system: SF-295
SF-539 = test system: SF-539
SK-MEL-28 = test system: SK-MEL-28
SK-MEL-2 = test system: SK-MEL-2
SK-OV-3 = test system: SK-OV-3
SN12C = test system: SN12C
SNB-19 = test system: SNB-19
SNB-75 = test system: SNB-75
SNB-78 = test system: SNB-78
SR = test system: SR
SW-620 = test system: SW-620
U-251 = test system: U-251
UACC-257 = test system: UACC-257
UACC-62 = test system: UACC-62
UO-31 = test system: UO-31
XF498 = test system: XF498
LOX IMVI = test system: LOX IMVI
Malme-3M = test system: Malme-3M
NCI-H226 = test system: NCI-H226
NCI-H522 = test system: NCI-H522
OVCAR-5 = test system: OVCAR-5
SF-268 = test system: SF-268
TK-10 = test system: TK-10
M14 = test system: M14

For CC(C)CC(CNC(Cc1ccc(Cl)cc1)C(N)=O)NC(=O)C(Cc1c[nH]cn1)NC(=O)CNC(=O)C(NC(=O)C(C)NC(=O)C(Cc1c[nH]c2ccccc12)NC(=O)C(CCC(=O)O)NC(=O)C(N)Cc1ccccc1)C(C)C (stereo unspecified), the GI50 (786-0) was > 133 µM (inactive), the GI50 (A498) was > 133 µM (inactive) and the GI50 (A549) was > 133 µM (inactive). For the same compound, the GI50 (ACHN) was > 133 µM (inactive), the GI50 (CAKI-1) was > 133 µM (inactive) and the GI50 (CCRF-CEM) was > 133 µM (inactive). For the same compound, the GI50 (COLO 205) was > 133 µM (inactive), the GI50 (DLD-1) was > 133 µM (inactive) and the GI50 (DMS-114) was 119 µM (inactive). For the same compound, the GI50 (DMS-273) was > 133 µM (inactive), the GI50 (EKVX) was > 133 µM (inactive) and the GI50 (HCC 2998) was > 133 µM (inactive). For the same compound, the GI50 (HCT-116) was > 133 µM (inactive), the GI50 (HCT-15) was greater than 133 µM and the GI50 (HL-60) was > 133 µM (inactive). The GI50 (HOP-62) was > 133 µM (inactive), the GI50 (HOP-92) was < 0.0133 µM (active) and the GI50 (HT-29) was > 133 µM (inactive). The GI50 (IGROV-1) was > 133 µM (inactive), the GI50 (K562) was > 133 µM (inactive) and the GI50 (KM-20L2) was > 133 µM (inactive). For the same compound, the GI50 (KM12) was > 133 µM (inactive), the GI50 (LXFL 529) was > 133 µM (inactive) and the GI50 (M19-MEL) was > 133 µM (inactive). The GI50 (MOLT-4) was > 133 µM (inactive), the GI50 (NCI-H23) was > 133 µM (inactive) and the GI50 (NCI-H460) was > 133 µM (inactive). For the same compound, the GI50 (OVCAR-3) was > 133 µM (inactive), the GI50 (OVCAR-4) was > 133 µM (inactive) and the GI50 (OVCAR-8) was > 133 µM (inactive). The GI50 (RPMI-8226) was > 133 µM (inactive), the GI50 (RXF 393) was > 133 µM (inactive) and the GI50 (RXF 631) was > 133 µM (inactive). For the same compound, the GI50 (SF-295) was > 133 µM (inactive), the GI50 (SF-539) was > 133 µM (inactive) and the GI50 (SK-MEL-28) was > 133 µM (inactive). For the same compound, the GI50 (SK-MEL-2) was > 133 µM (inactive), the GI50 (SK-OV-3) was > 133 µM (inactive) and the GI50 (SN12C) was > 133 µM (inactive). For the same compound, the GI50 (SNB-19) was > 133 µM (inactive), the GI50 (SNB-75) was > 133 µM (inactive) and the GI50 (SNB-78) was > 133 µM (inactive). The GI50 (SR) was > 133 µM (inactive), the GI50 (SW-620) was > 133 µM (inactive) and the GI50 (U-251) was > 133 µM (inactive). For the same compound, the GI50 (UACC-257) was > 133 µM (inactive), the GI50 (UACC-62) was > 133 µM (inactive) and the GI50 (UO-31) was 8.17 µM (inactive). The GI50 (XF498) was > 133 µM (inactive).
In the case of Fc1ccc(C2SCc3nc4ccccc4n32)cc1Cl (stereo unspecified), the GI50 (786-0) is reported as 27.7 µM (inactive), the GI50 (A498) is reported as 33.7 µM (inactive) and the GI50 (A549) is reported as 25.8 µM (inactive). For the same compound, the GI50 (ACHN) was 25.5 µM (inactive), the GI50 (CAKI-1) was 13 µM (inactive) and the GI50 (CCRF-CEM) was 25.6 µM (inactive). For the same compound, the GI50 (COLO 205) was 15.3 µM (inactive), the GI50 (DLD-1) was 23 µM (inactive) and the GI50 (DMS-114) was 19.9 µM (inactive). For the same compound, the GI50 (DMS-273) was > 10 µM (inactive), the GI50 (EKVX) was 24.3 µM (inactive) and the GI50 (HCC 2998) was 16.3 µM (inactive). For the same compound, the GI50 (HL-60) was 13.1 µM (inactive), the GI50 (HOP-62) was 15.5 µM (inactive) and the GI50 (HOP-92) was 12 µM (inactive). For the same compound, the GI50 (HT-29) was 37.1 µM (inactive), the GI50 (IGROV-1) was > 10 µM (inactive) and the GI50 (K562) was 16.5 µM (inactive). For the same compound, the GI50 (KM-20L2) was 29.9 µM (inactive), the GI50 (KM12) was 16.1 µM (inactive) and the GI50 (LOX IMVI) was 17.9 µM (inactive). The GI50 (LXFL 529) was 18.6 µM (inactive), the GI50 (M19-MEL) was 19.8 µM (inactive) and the GI50 (MOLT-4) was 23.2 µM (inactive). The GI50 (Malme-3M) was 7.8 µM (inactive), the GI50 (NCI-H226) was 23.2 µM (inactive) and the GI50 (NCI-H23) was 22.5 µM (inactive). The GI50 (NCI-H460) was 29.2 µM (inactive), the GI50 (NCI-H522) was 13.7 µM (inactive) and the GI50 (OVCAR-4) was 20 µM (inactive). The GI50 (OVCAR-5) was 15.4 µM (inactive), the GI50 (OVCAR-8) was 21.3 µM (inactive) and the GI50 (RXF 393) was 19.4 µM (inactive). For the same compound, the GI50 (RXF 631) was 32.9 µM (inactive), the GI50 (SF-268) was 33.6 µM (inactive) and the GI50 (SF-295) was 26.5 µM (inactive). For the same compound, the GI50 (SF-539) was 18.7 µM (inactive), the GI50 (SK-MEL-28) was 24.7 µM (inactive) and the GI50 (SK-MEL-2) was > 10 µM (inactive). For the same compound, the GI50 (SK-OV-3) was 17.5 µM (inactive), the GI50 (SN12C) was 16.3 µM (inactive) and the GI50 (SNB-19) was 34.4 µM (inactive). For the same compound, the GI50 (SNB-78) was 48.8 µM (inactive), the GI50 (SR) was 27.2 µM (inactive) and the GI50 (SW-620) was 36.1 µM (inactive). The GI50 (TK-10) was 27.8 µM (inactive), the GI50 (U-251) was 19.4 µM (inactive) and the GI50 (UACC-257) was 22.8 µM (inactive). The GI50 (UACC-62) was 10.1 µM (inactive), the GI50 (UO-31) was 16.7 µM (inactive) and the GI50 (XF498) was 14 µM (inactive).
For COc1ccc(/C=C/c2cc(OC)c(OC(C)=O)c(OC)c2)cc1, the GI50 (786-0) was 33.7 µM (inactive), the GI50 (A549) was 24.8 µM (inactive) and the GI50 (ACHN) was 33 µM (inactive). The GI50 (CCRF-CEM) was 30.8 µM (inactive), the GI50 (COLO 205) was 68.1 µM (inactive) and the GI50 (DLD-1) was 29.9 µM (inactive). For the same compound, the GI50 (DMS-114) was 26.5 µM (inactive), the GI50 (DMS-273) was 31.2 µM (inactive) and the GI50 (EKVX) was 28.1 µM (inactive). The GI50 (HCC 2998) was 20.7 µM (inactive), the GI50 (HCT-116) was 30.8 µM (inactive) and the GI50 (HCT-15) was 26.2 µM. The GI50 (HOP-62) was 25.9 µM (inactive), the GI50 (HOP-92) was 28.1 µM (inactive) and the GI50 (HT-29) was 26.5 µM (inactive). For the same compound, the GI50 (IGROV-1) was 36.8 µM (inactive), the GI50 (KM-20L2) was 35.1 µM (inactive) and the GI50 (LXFL 529) was 27.5 µM (inactive). The GI50 (M14) was 34.6 µM (inactive), the GI50 (M19-MEL) was 30.1 µM (inactive) and the GI50 (MOLT-4) was 20.3 µM (inactive). The GI50 (Malme-3M) was 26.3 µM (inactive), the GI50 (NCI-H226) was 21.6 µM (inactive) and the GI50 (NCI-H23) was 20.7 µM (inactive). The GI50 (NCI-H460) was 22.1 µM (inactive), the GI50 (NCI-H522) was 19.5 µM (inactive) and the GI50 (OVCAR-3) was 41.2 µM (inactive). The GI50 (OVCAR-4) was 45.9 µM (inactive), the GI50 (OVCAR-5) was 1.94 µM (inactive) and the GI50 (OVCAR-8) was 22 µM (inactive). For the same compound, the GI50 (RPMI-8226) was 31.8 µM (inactive), the GI50 (RXF 631) was 36.1 µM (inactive) and the GI50 (SF-268) was 29.1 µM (inactive). For the same compound, the GI50 (SF-539) was > 10 µM (inactive), the GI50 (SK-MEL-28) was 9.68 µM (inactive) and the GI50 (SK-MEL-2) was 37.2 µM (inactive). For the same compound, the GI50 (SK-OV-3) was 37.3 µM (inactive), the GI50 (SN12C) was 24.3 µM (inactive) and the GI50 (SNB-19) was 25.1 µM (inactive). For the same compound, the GI50 (SNB-75) was 18.5 µM (inactive), the GI50 (SNB-78) was 22 µM (inactive) and the GI50 (U-251) was 17.5 µM (inactive). For the same compound, the GI50 (UACC-257) was 20.7 µM (inactive), the GI50 (UACC-62) was 20.1 µM (inactive) and the GI50 (UO-31) was 20.3 µM (inactive). For the same compound, the GI50 (XF498) was 34.5 µM (inactive).

Source: ChEMBL document CHEMBL1201862, “PubChem BioAssay data set” (2004)
